This assay concerns LPS-stimulated human peripheral blood mononuclear cells (PBMCs). Briefly: In vitro inhibition of LPS-stimulated cytokine/chemokine/growth factor production (Milliplex 38-plex). The format is cell-based. The following applies: for inhibitory activity on inflammatory cytokines: preliminary study, LPS-stimulated PBMC; for Inhibitory scale (0-5): D1 PBMC, 1 ng/mL LPS, 0 = no or very minimal inhibition, 1 to 2.5 = IFNγ, IL-1 series, IP-10, MCP-1, 3 = TNFα also, above 3 = some T cell cytokines, 5 = all cytokines inhibited; for immunomodulatory response type: approximately 10 μM, stimulatory = signal above 130%, inhibitory = signal below 70% of LPS-stimulated control (no FFA added).

Here are results for four compounds from patent US20220362199A1, “ENRICHED POLYUNSATURATED FATTY ACID COMPOSITIONS” (NUSEED NUTRITIONAL US INC., priority 2019, published 2022).

Take `CC/C=C\C/C=C\C/C=C\C/C=C\C/C=C\CCCCCC(=O)O` [DPAn-3, Docosapentaenoic acid n-3]: where the note is “fatty acid as primary component or at higher amount in the preparation”, the “inhibitory activity on inflammatory cytokines” value is “significant inhibitory activity”.
`CC/C=C\C/C=C\C/C=C\C/C=C\C/C=C\CCCCCC(=O)O` [Syn DPA, DPA]: the immunomodulatory response type result was “both stimulatory and inhibitory responses”. For the same compound, where the note is “30 μM FFA preparation”, the “Inhibitory scale (0-5)” value came out at 4.0.
With ETA [Syn ETA], the immunomodulatory response type result was “both stimulatory and inhibitory responses”. For the setting “30 μM dose, >50% reduction compared to LPS-stimulated control”, the “inhibitory effect on more than half the analytes” value is “strong inhibitory effect”. Further, the “Inhibitory scale (0-5)” value ([…]) is 4.75.
As to Eicosatetraenoic acid [ETA], where the note is “[…]”, the “inhibitory activity on inflammatory cytokines” value was “significant inhibitory activity”.
